Data taken from patent US8350061B2, “Synthetic analogs of bacterial quorum sensors” (priority 2009, dated 2013).

Legend:
Assay type in all cases: cell-based
[1] = tested on: Yersinia pestis, Yersinia enterocolitica and Yersinis pseudomonas
[2] = tested on: Yersinia pestis, Yersinia enterocolitica
[3] = tested on: A549 human lung epithelial cells

## CCCC(=[Se])NC1CCOC1=O (stereo not shown) [(IV), N-(2-oxo-tetrahydro-furan-3-yl)-selenobutyramide]
[1]
  viability of biofilm-growing bacteria: significantly inhibited
[2]
  biofilm formation: significantly inhibited
[3]
  infection of cells by Pseudomonas aeruginosa: prevented the infection of cells
  viability of cells: increase in the viability of cells
